Data taken from EP1043331A1, “BONE-RESORPTIVE CYTOKINE INHIBITOR CONTAINING DIENOGEST AS THE ACTIVE INGREDIENT” (MOCHIDA PHARMACEUTICAL CO., LTD., priority 1997, dated 1999).
Marks after values point to notes of the source that are not given here.

Assays:
Type in all cases: cell-based, mouse
cAMP = cAMP content in murine osteoblast (time-resolved fluorometry); details: Fig.1
Method: (§1) According to the method by Johansen, et al. (Journal Bone and Mineral Research, Vol.7, pp.501-509, 1992), osteoblast was collected from the femoral bones of a female SLC : ICR mouse of age 15 weeks. Under anesthesia with pentobarbital sodium (25 mg/kg, intraperitoneal administration), postcava was cut to bleed and kill the animal to death. Then, bilateral femoral bones were resected. This bone was cut with a pair of bone scissors, to remove the bone marrow with a micro-loop. The inner face of the bone was rubbed off with a sharp blade. The resulting matter was agitated in a 10 % collagenase solution (Nitta gelatin) at 37 °C for 20 minutes, and to the resulting mixture was added a culture medium (an MEM culture medium supplemented with 10 % charcoal-treated bovine fetal serum; manufactured by Nissui Pharmaceutical, Co. Ltd.) prior to centrifugation (300×g, 5 minutes and 20 °C). The resulting cells were dispersed in a fresh culture medium and then inoculated on a plastic culture dish (diameter of 35 mm, Primaria (Falcon)). […] Osteoblast was identified by using alkali phosphatase staining as an osteoblast marker. For recovering osteoblast from an animal after ovariectomy, ovariectomy was carried out at age 11 weeks, and the animal was fed for the following 4 weeks, prior to the same treatment. 1×10^4 cells/ml osteoblast suspension (100 µl), a culture medium (890 µl) and a drug solution (10 µl) were added into each well of a plastic 24-well culture plate (Falcon), for culturing at 37 °C in 5 % CO2/95 % air for 24 hours, and then, the resulting culture was centrifuged (300 ×g, 5 minutes, 20°C) to recover the supernatant, which was defined as a cytokine assay sample. […] For experiments, furthermore, three dishes per each group were used. […] After rinsing with a DELFIA rinse solution, an enhancer reagent (100 µl) was added, for agitation at room temperature for 5 minutes, to determine the fluorescence intensity with a time-resolved fluorometer. Based on a preliminarily prepared standard curve, cAMP content was calculated.

PKA = PKA activity in murine osteoblast (time-resolved fluorometry); details: Fig.2
Method: as §1, with “used. The osteoblast recovered by the method of the Experimental Example 1 was used.” for “used.”, “An” for “After rinsing with a DELFIA rinse solution, an”, “PKA activity” for “cAMP content”

murine osteoclast = assay: Frequency of occurrence of apoptosis in murine osteoclast; details: 7 days, one hundred cells with two or more nuclei observed, control 4.0
Method: By a method according to the report by Takahashi et al. (Endocrinology, Vol.122, pp.1373-1382, 1988), osteoclast was prepared. More specifically, a female SLC:ICR mouse of age 7 weeks was bled and killed to death, under anesthesia with pentobarbital sodium (25 mg/kg, intraperitoneal administration), and from the mouse; her femoral bone was resected. Both the ends were cut, to rinse off the […] into α-MEM (Gibco) (1 ml). […] 0.5 ml of the cell suspension was inoculated in a 24-well microtiter plate. To the wells was added 100 ng/ml parathyroid hormone (Sigma Chemical Co.) for culturing in 5 % CO2/95 % air at 37 °C for 2 days. […] Herein, three plates were used per one concentration of each drug. […] After rinsing in PBS, the apoptosis cells were detected by using an ApopTagPlus Insitu Apoptosis Detection kit peroxidase (Oncor, Gaithersburg, MD, USA) and a TSA-direct kit (GreenFISH, NEN Life Science Products, Boston, MA). Simultaneously, the smear sample was stained with a 20 µg/ml propidium iodide (Sigma Chemical Co.) solution containing 50 U/ml RNase, at room temperature for 15 minutes, to stain the nucleus. One hundred cells with two or more nuclei were observed under a cofocal laser scanning type fluorescence microscope (MRC-1000, BioRad), to determine the number of apoptosis-positive cells developed: The results are shown in Table 5.

[1] = doses of 10^-11, 10^-10 and 10^-9 M
[2] = at a concentration of 10^-9 M or more

Compound	cAMP content in murine osteoblast (cAMP; [1])	PKA activity in the murine osteoblast (PKA; [1])	frequency of apoptosis occurrence in murine osteoclast (number of apoptosis-positive cells) (murine osteoclast; 10^-9 M)	frequency of apoptosis occurrence in murine osteoclast (number of apoptosis-positive cells) (murine osteoclast; 10^-10 M)	frequency of apoptosis occurrence in murine osteoclast (number of apoptosis-positive cells) (murine osteoclast; 10^-11 M)	cAMP content in murine osteoblast (cAMP; [2])	PKA activity in the murine osteoblast (PKA; [2])
C#C[C@]1(O)CC[C@H]2[C@@H]3CCC4=Cc5oncc5C[C@]4(C)[C@H]3CC[C@@]21C [Danazol, danazol]	did not affect	did not affect	3.3	3.7	4.0		
C[C@]12CCC3=C4CCC(=O)C=C4CC[C@H]3[C@@H]1CC[C@@]2(O)CC#N [Dienogest, 17 α-cyanomethyl-17β-hydroxy-estra-4,9(10)-dien-3-one]			16.3**	5.0	3.7	significantly increased	significantly enhanced
CC(=O)O[C@]1(C(C)=O)CC[C@H]2[C@@H]3C[C@H](C)C4=CC(=O)CC[C@]4(C)[C@H]3CC[C@@]21C [MPA, medroxyprogesterone acetate]	did not affect	did not affect	5.0	3.7	4.0		
